Reference: publication PMC12508576, “Implementing a trilineage differentiation in the ReproTracker assay for improved teratogenicity assessment” (Frontiers in Toxicology, 2025)
Read-outs that look alike come from different tables or passages of the source.

Experiments:
[1] = test system: hiPSCs differentiating into cardiomyocyte-like cells; assay: ReproTracker cardiomyocyte differentiation assay
Protocol: (§1) Prior to differentiation, the cells were harvested and dissociated into single cells using Gibco™ TrypLE™ Select (ThermoFisher Scientific; Bleiswijk, Netherlands) for 5 min at 37 °C. Cells were seeded in Matrigel™-coated 24-well plates (ThermoFisher Scientific) in mTeSR™1 containing RevitaCell™ Supplement (ThermoFisher Scientific). […] The cells were cultured in this medium until D3. From D3 until the end of the differentiation protocol (D13) (one-step protocol), cells were cultured in N2B27 medium without ROCK inhibitor or LDN193189. In the case of the replating protocol, cells were replated at D7 and grown in the same medium until day 13. At the end of the differentiation, morphology of the cells was assessed using an Operetta CLS (Revvity) instrument. The expected morphology for each of the lineages, to ensure data acceptance and correct differentiations, is further described in Section 2.9 of the methods section. The trilineage differentiation was replicated in 96-well plates (ThermoFisher Scientific and Revvity Phenoplate) using the same differentiation protocols with an adapted number of cells for the seeding. And termination at D14.
(§2) Cells were harvested, and total RNA was isolated using the Maxwell® RSC simply RNA Cells Kit (cat. no.: #AS1390; Promega) on a Maxwell automated purification instrument (Maxwell RSC 48; Promega). […] Each individual primer was paired with its corresponding fluorophore and quencher and adjusted accordingly depending on gene abundance. Primer and probe sequences are described in Supplementary Table S1.
(§3) Data acceptance was based on the appropriate expression of the assessed biomarker genes in the differentiated populations, at appropriate times during differentiation. Failure to observe the expected temporal expression of key, lineage-specific biomarkers, during the cell fate choices associated with each differentiation protocol, would result in the experiment being invalidated.
(§4) To follow morphological changes throughout the hepatocyte and neural differentiation protocol, brightfield images of the cells were acquired after each medium refresh using an iRiS digital cell imaging microscope (Logos Biosystems) or an Operetta CLS (Revvity) instrument. Images were scored based on visual assessment. Cardiac contractability of cardiomyocytes was evaluated visually using an iRiS digital cell imaging microscope (Logos Biosystems).
(§5) Morphologically, cardiomyocytes are expected to group in fiber-like 3D structures that distribute throughout the entire plate. Aside from morphology, an additional criterion for cardiomyocyte differentiation in each experimental setup is for the contracting mature cardiomyocyte cultures exposed to solvent controls, to reach 75%. […] Neural rosettes are recognized by well-defined cell boundaries and multi-layered cultures. Functional/morphological assessment was completed independently from biomarker data analyses. Morphology scores were confirmed by a second person. Failure to observe the anticipated cell morphology/functionality throughout differentiation would result in invalidation of the experiment. Disruption in the morphology of cardiomyocytes is described as a lack of 3D-fibre-like structures in the cultures as well as a clear lack of contractions. Morphologically aberrant hepatocytes are characterized by a lack of polygonal structures with smaller cytoplasm that in the control cultures and the formation of dark cell-dense structures, commonly indicative of clumps of dead cells with big empty spaces between cell colonies.

[2] = test system: hiPSCs differentiating into hepatocyte-like cells; assay: ReproTracker hepatocyte differentiation assay
Protocol: as §1, §2, §3, §4, §5

[3] = test system: hiPSCs differentiating into neural rosette-like cells
Protocol: as §1, §2, §3, §4, §5

[4] = test system: hiPSCs differentiating into neural rosette-like cells; assay: Neural rosette differentiation, replating protocol, PAX6/NESTIN immunostaining; type: cell-based, human; conditions: for NESTIN localization: D13; for PAX6 protein levels: D13, non-cytotoxic concentrations; for NESTIN protein levels: D13, tacrolimus: highest tested concentration
Protocol: as §1
For neural rosette-like cells’ imaging, cells were washed with PBS and subsequently, cells were fixed using 4% paraformaldehyde in PBS. Permeabilization was performed using 0.1% Triton-X in PBS for 10 min at room temperature. Cells were blocked using 10% donkey serum diluted in PBS +0.1% Tween20 for 10 more minutes. Incubation with primary antibody overnight at 4 °C was performed to stain the cells. The cells were washed 3 times with PBS +0.1% Tween20 and incubated with a secondary antibody in PBS for 1 h at room temperature. Cellular nuclei were stained using Hoechst H33342 (CAS# […], Sigma Aldrich in a 1:5000 dilution). Imaging was done using an Operetta CLS (Revvity) instrument. Primary and secondary antibodies’ concentrations are described in Supplementary Table S2.
To quantify PAX6-and NESTIN-positive cells, Hoechst-stained nuclei were selected based on their fluorescent signal above the background. Cells were also excluded if touching the edge of the fields of view. Also, size exclusion was applied to avoid clustered nuclei being counted as single objects. Fluorescence measurements of PAX6 were performed within the defined nuclei and intracellularly for NESTIN. Then, a minimal fluorescence threshold was defined, resulting in the selection of PAX6-positive cells and NESTIN-positive cells. Finally, the percentages of PAX6-and NESTIN-positive cells were calculated using Revvity Harmony™ Software.
The compounds were tested in both the replating and the one-step protocols. Due to the nature of the protocols, teratogenicity prediction of the compounds was performed based on quantification of PAX6 and NESTIN-positive cells at D13 in the replating protocol or on a significant reduction in the biomarker gene expression at D7 and D13, as well as qualitative morphological analysis at D13 in the one-step protocol.

[5] = test system: hiPSCs trilineage differentiation (cardiomyocytes, hepatocytes, neural rosette-like cells); conditions: human
Description: (§6) In ReproTracker, teratogenicity prediction of test compounds is based on a Weight of Evidence (WoE) approach, which considers both the significant decrease in biomarker expression and the morphological/functional changes following exposure to test compounds throughout differentiation assays.
(§7) This threshold, for any given biomarker, is defined as the average minus one time the standard deviation (SD) of the biomarker expression levels in solvent-exposed control cultures throughout the experiment. Reduced expression of the selected biomarkers below the set threshold in a concentration-dependent manner, upon exposure to a minimum of 2 consecutive non-cytotoxic concentrations would be considered significant (noted as +). A decrease in expression below the threshold without a clear dose-response would lead to an equivocal classification (noted as (+)). An increase in expression or a lack of response would be considered negative (noted as -). Disruption of morphology/functionality of the cultures upon compound exposure at the two highest tested concentrations in all biological replicates is considered as a morphological disruption (noted as +). Absence of significant effects results in a negative score (noted as -).
(§8) For each differentiation assay, the expression of two biomarkers and a morphological/functional read-out are considered. In the hepatocyte and cardiomyocyte differentiation, FOXA2 and BMP4 are considered germ-layer-specific biomarkers, while AFP and MYH6 are considered cell-specific biomarkers, respectively. When applying the WoE approach, the cell-specific biomarkers in hepatocyte and cardiomyocyte differentiation are given higher weight compared to the germ-layer specific biomarkers and morphology/functionality. For the neural differentiation, both PAX6 and NESTIN are given equal weight as they are considered cell-specific markers. In this case, both biomarkers are given higher weight than the morphological read-out.
(§9) Every measurement/observation is assigned a score (positive, negative, or equivocal). […] In the ReproTracker assay, a compound is identified as a teratogen if it receives a positive score in at least one of the trilineage differentiation assays (cardiomyocyte, hepatocyte, or neural differentiation). […] If neither biomarker expression levels nor morphology/functionality are affected in any of the differentiation assays, the response is considered negative.

[6] = read-out: Human therapeutic cmax, Table 1 (R3 I (2021), Schulz et al. (2020) and others); cited from earlier work
undifferentiated hiPSCs [7] = assay: Concentration-range selection and cytotoxicity assessment (AlamarBlue); conditions: lowest concentration that induced a maximum of 20% cytotoxicity in hiPSCs, 7 days
Protocol: In short, hiPSCs were exposed to 20 consecutive concentrations of the test compounds using 1 mM or the maximum soluble concentration as the top concentration. Test compounds were added to the medium prior to the refreshes at D0 and D3. Cytotoxicity was estimated at D7; upon completion of the experiments, cells were incubated with resazurin solution (0.01 mg/mL in PBS) and measured absorbance (excitation 530 nm and emission 590 nm). Results were normalized against vehicle controls (0.1% v/v DMSO).
All compounds were tested at five consecutive concentrations in two-fold dilution steps. The top concentration was determined as the lowest concentration that induced a maximum of 20% cytotoxicity in the concentration range finding experiments. Compounds were then diluted 2-fold using serial dilutions.
Data acceptance for dose-range finding experiments was based on the response to positive and negative assay controls, and compound solubility and cytotoxicity. […] Concentrations of compound(s) inducing cytotoxicity and therefore reducing cell survival below 80% were excluded from further testing in differentiation assays.
Thus, to determine cytotoxicity of the test compounds, undifferentiated hiPSCs were exposed to 20 consecutive concentrations at 2-fold dilutions for 7 days. The lowest concentration that induced a maximum of 20% cytotoxicity in the concentration range finding experiment was applied as top concentration for the differentiation experiments.

undifferentiated hiPSCs [8] = test system: undifferentiated hiPSCs; set-up: method as in Jamalpoor et al., 2022; conditions: lowest concentration that induced a maximum of 20% cytotoxicity in hiPSCs; dose-range finding previously published; ref Jamalpoor et al., 2022; cited from earlier work
[9] = test system: hiPSCs trilineage differentiation (cardiomyocytes, hepatocytes, neural rosette-like cells); assay: ReproTracker trilineage differentiation, overall teratogenicity prediction; conditions: for ReproTracker results LOAEL: lowest tested concentration with significant decrease of at least one biomarker, trilineage assay, 'N.d. up to x' given as > x; for LOAEL compared with respective human therapeutic Cmax: Figure 4
Description: as §6, §7, §8, §9

[10] = test system: hiPSCs differentiating into cardiomyocyte-like cells; conditions: lineage call; footnote b: previously published data; ref Jamalpoor et al., 2022; cited from earlier work
[11] = test system: hiPSCs differentiating into hepatocyte-like cells; conditions: lineage call; footnote b: previously published data; ref Jamalpoor et al., 2022; cited from earlier work
human = conditions: Table 1 (R3 I (2021), Schulz et al. (2020) and others); cited from earlier work
[12] = test system: hiPSCs trilineage differentiation (cardiomyocytes, hepatocytes, neural rosette-like cells); conditions: based on effects on cardiomyocytes and/or hepatocytes only; ref Jamalpoor et al., 2022; cited from earlier work
[13] = lineage call (positive/equivocal/negative)

Structure (SMILES) | ReproTracker results Cardiomyocyte-like cells [1] | ReproTracker results Hepatocyte-like cells [2] | NESTIN gene expression at D13 [3] | PAX6 gene expression at D7 [3] | ReproTracker results Neural rosette-like cells [3] | morphology of neural rosette-like cells [3] | PAX6 protein levels [4] | NESTIN protein levels [4] | Cmax [6] [nM] | top concentration for the differentiation experiments (undifferentiated hiPSCs [8]) [µM] | ReproTracker results LOAEL [9] | also measured
CC1=C(/C=C/C(C)=C/C=C/C(C)=C/C(=O)O)C(C)(C)CCC1 [Tretinoin (Retinoic acid)] | Positive | Positive | downregulated | downregulation | Positive | disrupted | significantly decreased | increasing | 1300 | – | – | NESTIN gene expression at D7 [3]: increased; OTX2 gene expression [3]: downregulation; PAX6 gene expression at D13 [3]: downregulation; effect at the highest tested concentration in the replating protocol ([4]; 5 µM): complete cell death; NESTIN localization [4]: disrupted; LOAEL compared with respective human therapeutic Cmax [5]: equal to or below; ReproTracker results LOAEL [5]: ≤0.3 µM; top concentration for the differentiation experiments (undifferentiated hiPSCs [7]): 5 µM
O=C1NS(=O)(=O)c2ccccc21 [Saccharin] | Negative | Negative | no effect | no effect | Negative | no effect | no effect | no effect | – | 250 | N.d. up to 250 µM | –
[CH3][Hg][Cl] [Methylmercury] | – | – | – | – | – | – | – | – | 1 to 30 | 0.3 | N.d. up to 0.31 µM | ReproTracker results Neural rosette-like cells [3, 13]: Negative; ReproTracker results Cardiomyocyte-like cells [10]: Negative; ReproTracker results Hepatocyte-like cells [11]: Negative
C=CC[C@@H]1/C=C(\C)C[C@H](C)C[C@H](OC)[C@H]2O[C@@](O)(C(=O)C(=O)N3CCCC[C@H]3C(=O)O[C@H](/C(C)=C/[C@@H]3CC[C@@H](O)[C@H](OC)C3)[C@H](C)[C@@H](O)CC1=O)[C@H](C)C[C@@H]2OC [Tacrolimus] | Equivocal | Positive | downregulated | downregulation | Positive | disrupted | concentration-dependent decrease | increased | 0.6 to 30 | 7.81 | – | NGN2 gene expression [3]: no significant effect; OTX2 gene expression [3]: no significant effect; PAX6 gene expression at D13 [3]: increasing; SOX1 gene expression [3]: no significant effect; NESTIN localization [4]: affecting; LOAEL compared with respective human therapeutic Cmax [5]: higher; ReproTracker results LOAEL [5]: ≤0.2 µM
Nc1cccc2c1C(=O)N(C1CCC(=O)NC1=O)C2=O (stereo not shown) [Pomalidomide] | – | – | – | – | – | – | – | – | 300 to 400 | – | ≤12.5 µM | ReproTracker results Cardiomyocyte-like cells [1, 13]: Positive; ReproTracker results Hepatocyte-like cells [2, 13]: Positive; ReproTracker results Neural rosette-like cells [3, 13]: Positive; In vivo classification H (human): T (presumed); LOAEL compared with respective human therapeutic Cmax [9]: higher
CO [Methanol] | Negative | Negative | – | – | Negative | – | – | – | 98700 | – | N.d. up to 1000 µM | In vivo classification H (human): NT (presumed)
COc1ccc([C@@H]2Sc3ccccc3N(CCN(C)C)C(=O)[C@@H]2OC(C)=O)cc1 [Diltiazem] | – | – | – | – | Positive | – | – | – | 60 to 300 | – | ≤7.8 µM | ReproTracker results Hepatocyte-like cells [11]: Positive; LOAEL before inclusion of the neural differentiation readout [12]: 31 µM; LOAEL compared with respective human therapeutic Cmax [9]: higher; ReproTracker results LOAEL ([9]; listed as diltiazem): ≤ 7.8 µM
